# Results published in article PMC5999115, “Anti-tumor activity of phenoxybenzamine and its inhibition of histone deacetylases” (PLoS ONE, 2018).
# How the values were obtained:
# MAXF T47D = assay: Oncotest CellTiter-Blue cell viability assay, 72 hours; type: cell-based, human; conditions: MAX T47D
# Protocol: (§1) Further studies with varying drug concentrations on selected human cell lines, in most cases those studied in the NCI60 screen, were conducted by Oncotest GmbH laboratories, Freiburg, Germany; Oncotest is a division of Charles River Laboratories. The dissolution procedure for PBZ and the cell culture […] was 72 hours; anti-tumor activity was determined with the CellTiter-Blue® Cell Viability Assay, Promega, Mannheim, Germany. The 50% Inhibitory (IC50) concentrations were determined. The results are the average of duplicate assays. Paclitaxel was included as a reference compound to confirm the integrity of the assays. See S1 Appendix for further details.
# (§2) “Cell lines were routinely passaged once or twice weekly and maintained in culture for up to 20 passages. Cells were grown at 37°C in a humidified atmosphere with 5% CO2 in RPMI 1640 medium (25 mM HEPES, with L-glutamine, #FG1385, Biochrom, Berlin, Germany) supplemented with 10% (v/v) fetal calf serum (Sigma, Taufkirchen, Germany) and 0.1 mg/mL gentamicin (Life Technologies, Karlsruhe, Germany).”
# MEXF UACC-257 = assay: as above; type: cell-based, human
# Protocol: as §1, §2
# OVXF OVCAR-8 = assay: as above; type: cell-based, human
# Protocol: as §1, §2
# [1] = test system: implanted tumors (malignant glioma); design: method as in PMID 26409450; conditions: direct injection into implanted tumors; cited from earlier work
# [2] = MEXF UACC-257, 1% FCS, study P495C
# [3] = MEXF UACC-257, 10% FCS, study P495A
# [4] = OVXF OVCAR-8, 1% FCS, study P495C
# [5] = OVXF OVCAR-8, 10% FCS, study P495A
# [6] = OVXF OVCAR-8, 10% FCS, study P495B
smiles,measurement,setting,value
"CC(COc1ccccc1)N(CCCl)Cc1ccccc1 (centres unmarked) [PBZ, phenoxybenzamine]","Test/Control (%) at Drug Concentration [uM] 3,2E+01","MAXF T47D; 1% FCS, study P495C",92%
same,"Test/Control (%) at Drug Concentration [uM] 1,0E+00","MAXF T47D; 10% FCS, study P495A",101%
same,"Test/Control (%) at Drug Concentration [uM] 1,0E+01","MAXF T47D; 10% FCS, study P495A",97%
same,"Test/Control (%) at Drug Concentration [uM] 1,0E+02","MAXF T47D; 10% FCS, study P495A",74%
same,"Test/Control (%) at Drug Concentration [uM] 1,0E-01","MAXF T47D; 10% FCS, study P495A",97%
same,"Test/Control (%) at Drug Concentration [uM] 1,0E-02","MAXF T47D; 10% FCS, study P495A",92%
same,"Test/Control (%) at Drug Concentration [uM] 3,2E+00","MAXF T47D; 10% FCS, study P495A",102%
same,"Test/Control (%) at Drug Concentration [uM] 3,2E+01","MAXF T47D; 10% FCS, study P495A",95%
same,"Test/Control (%) at Drug Concentration [uM] 3,2E-01","MAXF T47D; 10% FCS, study P495A",97%
same,"Test/Control (%) at Drug Concentration [uM] 3,2E-02","MAXF T47D; 10% FCS, study P495A",92%
same,"Test/Control (%) at Drug Concentration [uM] 3,2E-03","MAXF T47D; 10% FCS, study P495A",97%
same,"Test/Control (%) at Drug Concentration [uM] 1,0E+00","MAXF T47D; 10% FCS, study P495B",80%
same,"Test/Control (%) at Drug Concentration [uM] 1,0E+01","MAXF T47D; 10% FCS, study P495B",79%
same,"Test/Control (%) at Drug Concentration [uM] 1,0E+02","MAXF T47D; 10% FCS, study P495B",57%
same,"Test/Control (%) at Drug Concentration [uM] 1,0E-01","MAXF T47D; 10% FCS, study P495B",92%
same,"Test/Control (%) at Drug Concentration [uM] 1,0E-02","MAXF T47D; 10% FCS, study P495B",93%
same,"Test/Control (%) at Drug Concentration [uM] 1,0E-03","MAXF T47D; 10% FCS, study P495B",94%
same,"Test/Control (%) at Drug Concentration [uM] 3,2E+00","MAXF T47D; 10% FCS, study P495B",79%
same,"Test/Control (%) at Drug Concentration [uM] 3,2E+01","MAXF T47D; 10% FCS, study P495B",84%
same,Percent cell growth in Oncotest screen with 10% FCS (72 hr incubation),"MEXF UACC-257; 10 μM phenoxybenzamine, UACC-257",107%
same,IC50,"MEXF UACC-257; Homo sapiens, MEXF UACC-257 Melanoma, 1% FCS",49.8 µM
same,"Test/Control (%) at Drug Concentration [uM] 1,0E+00",MEXF UACC-257; [2],101%
same,"Test/Control (%) at Drug Concentration [uM] 1,0E+01",MEXF UACC-257; [2],107%
same,"Test/Control (%) at Drug Concentration [uM] 1,0E+02",MEXF UACC-257; [2],41%
same,"Test/Control (%) at Drug Concentration [uM] 3,2E+00",MEXF UACC-257; [2],106%
same,"Test/Control (%) at Drug Concentration [uM] 3,2E+01",MEXF UACC-257; [2],77%
same,"Test/Control (%) at Drug Concentration [uM] 1,0E+00",MEXF UACC-257; [3],101%
same,"Test/Control (%) at Drug Concentration [uM] 1,0E+01",MEXF UACC-257; [3],107%
same,"Test/Control (%) at Drug Concentration [uM] 1,0E+02",MEXF UACC-257; [3],68%
same,"Test/Control (%) at Drug Concentration [uM] 1,0E-01",MEXF UACC-257; [3],101%
same,"Test/Control (%) at Drug Concentration [uM] 1,0E-02",MEXF UACC-257; [3],101%
same,"Test/Control (%) at Drug Concentration [uM] 3,2E+00",MEXF UACC-257; [3],109%
same,"Test/Control (%) at Drug Concentration [uM] 3,2E+01",MEXF UACC-257; [3],106%
same,"Test/Control (%) at Drug Concentration [uM] 3,2E-01",MEXF UACC-257; [3],104%
same,"Test/Control (%) at Drug Concentration [uM] 3,2E-02",MEXF UACC-257; [3],113%
same,"Test/Control (%) at Drug Concentration [uM] 3,2E-03",MEXF UACC-257; [3],103%
same,Percent cell growth in Oncotest screen with 10% FCS (72 hr incubation),"OVXF OVCAR-8; 10 μM phenoxybenzamine, OVCAR-8",90%
same,IC50,"OVXF OVCAR-8; Homo sapiens, OVXF OVCAR-8 Ovarian, 1% FCS",31.9 µM
same,"Test/Control (%) at Drug Concentration [uM] 1,0E+00",OVXF OVCAR-8; [4],102%
same,"Test/Control (%) at Drug Concentration [uM] 1,0E+01",OVXF OVCAR-8; [4],100%
same,"Test/Control (%) at Drug Concentration [uM] 1,0E+02",OVXF OVCAR-8; [4],22%
same,"Test/Control (%) at Drug Concentration [uM] 3,2E+00",OVXF OVCAR-8; [4],104%
same,"Test/Control (%) at Drug Concentration [uM] 3,2E+01",OVXF OVCAR-8; [4],61%
same,"Test/Control (%) at Drug Concentration [uM] 1,0E+00",OVXF OVCAR-8; [5],84%
same,"Test/Control (%) at Drug Concentration [uM] 1,0E+01",OVXF OVCAR-8; [5],90%
same,"Test/Control (%) at Drug Concentration [uM] 1,0E+02",OVXF OVCAR-8; [5],67%
same,"Test/Control (%) at Drug Concentration [uM] 1,0E-01",OVXF OVCAR-8; [5],85%
same,"Test/Control (%) at Drug Concentration [uM] 1,0E-02",OVXF OVCAR-8; [5],90%
same,"Test/Control (%) at Drug Concentration [uM] 3,2E+00",OVXF OVCAR-8; [5],92%
same,"Test/Control (%) at Drug Concentration [uM] 3,2E+01",OVXF OVCAR-8; [5],96%
same,"Test/Control (%) at Drug Concentration [uM] 3,2E-01",OVXF OVCAR-8; [5],86%
same,"Test/Control (%) at Drug Concentration [uM] 3,2E-02",OVXF OVCAR-8; [5],86%
same,"Test/Control (%) at Drug Concentration [uM] 3,2E-03",OVXF OVCAR-8; [5],84%
same,"Test/Control (%) at Drug Concentration [uM] 1,0E+00",OVXF OVCAR-8; [6],89%
same,"Test/Control (%) at Drug Concentration [uM] 1,0E+01",OVXF OVCAR-8; [6],82%
same,"Test/Control (%) at Drug Concentration [uM] 1,0E+02",OVXF OVCAR-8; [6],32%
same,"Test/Control (%) at Drug Concentration [uM] 1,0E-01",OVXF OVCAR-8; [6],86%
same,"Test/Control (%) at Drug Concentration [uM] 1,0E-02",OVXF OVCAR-8; [6],90%
same,"Test/Control (%) at Drug Concentration [uM] 1,0E-03",OVXF OVCAR-8; [6],92%
same,"Test/Control (%) at Drug Concentration [uM] 3,2E+00",OVXF OVCAR-8; [6],84%
same,"Test/Control (%) at Drug Concentration [uM] 3,2E+01",OVXF OVCAR-8; [6],74%
same,expansion of tumor volume in vivo,[1],marked reduction in expansion of tumor volume
